Test results: patent publication US7618971B2, “Mitotic kinesin inhibitors” (Merck & Co. Inc., priority 2004, dated 2009)

Assay: Activity of the resolved enantiomers of 1-5 (test not stated)
Conditions: enantiomers resolved on Chiralpak AD; first and second peak to elute

SMILES	activity of the enantiomer (active / inactive)
CC(=O)N1N=C(c2cc(F)ccc2F)C[C@@]1(CCCO)c1ccccc1 (single isomer, unassigned; isomer 3) [(S) isomer]	active
CC(=O)N1N=C(c2cc(F)ccc2F)C[C@]1(CCCO)c1ccccc1 [(R) isomer]	inactive
